Data published in patent publication US9580423B2, “Bicyclic heterocycles as FGFR4 inhibitors” (Incyte Corporation, priority 2015, dated 2017).
Where two headings read alike, the source gives them in different places.

Tests used:
[1] = molecular target: FGFR2 (Homo sapiens (Human), UniProt P21802); experiment: FGFR Enzymatic Assay (FRET peptide phosphorylation), FGFR2; details: read-out: FGFR2 IC50; pre-incubated for 4 hours
Source text: (§1) The enzymes were purchased from Millipore or Invitrogen.
(§2) GraphPad prism3 was used to analyze the data. The IC50 values were derived by fitting the data to the equation for a sigmoidal dose-response with a variable slope. Y=Bottom+(Top-Bottom)/(1+10^((LogIC50−X)*HillSlope)) where X is the logarithm of concentration and Y is the response.

[2] = molecular target: FGFR4 (Homo sapiens (Human), UniProt P22455); experiment: FGFR Enzymatic Assay (FRET peptide phosphorylation), FGFR4; details: for FGFR1/FGFR4 IC50 ratio / FGFR2/FGFR4 IC50 ratio / FGFR3/FGFR4 IC50 ratio: IC50 ratio showing FGFR4 selectivity
FGFR4, sequence (P22455 22-802): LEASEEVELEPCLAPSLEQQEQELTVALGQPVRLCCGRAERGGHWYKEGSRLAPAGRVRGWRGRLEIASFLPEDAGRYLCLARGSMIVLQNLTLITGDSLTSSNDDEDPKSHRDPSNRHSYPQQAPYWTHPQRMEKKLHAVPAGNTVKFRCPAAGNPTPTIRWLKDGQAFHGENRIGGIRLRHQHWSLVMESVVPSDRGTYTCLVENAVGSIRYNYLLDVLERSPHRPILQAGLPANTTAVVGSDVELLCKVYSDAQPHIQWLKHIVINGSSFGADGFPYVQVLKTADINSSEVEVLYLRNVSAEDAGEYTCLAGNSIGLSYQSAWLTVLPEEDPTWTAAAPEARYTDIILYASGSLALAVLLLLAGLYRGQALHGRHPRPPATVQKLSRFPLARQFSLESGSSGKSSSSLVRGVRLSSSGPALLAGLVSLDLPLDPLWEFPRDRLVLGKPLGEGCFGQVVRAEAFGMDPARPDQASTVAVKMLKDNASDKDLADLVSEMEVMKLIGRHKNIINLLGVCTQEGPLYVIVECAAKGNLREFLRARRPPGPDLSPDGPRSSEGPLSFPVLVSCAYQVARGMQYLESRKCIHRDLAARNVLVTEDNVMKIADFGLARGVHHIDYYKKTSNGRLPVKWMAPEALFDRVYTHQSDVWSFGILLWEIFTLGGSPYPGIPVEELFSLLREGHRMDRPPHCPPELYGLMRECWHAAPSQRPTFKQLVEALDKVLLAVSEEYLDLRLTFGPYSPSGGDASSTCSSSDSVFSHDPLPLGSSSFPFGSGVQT
Source text: as §1, §2

[3] = molecular target: FGFR3 (Homo sapiens (Human), UniProt P22607); experiment: FGFR Enzymatic Assay (FRET peptide phosphorylation), FGFR3; details: read-out: FGFR3 IC50; pre-incubated for 4 hours
FGFR3, sequence (P22607 23-806): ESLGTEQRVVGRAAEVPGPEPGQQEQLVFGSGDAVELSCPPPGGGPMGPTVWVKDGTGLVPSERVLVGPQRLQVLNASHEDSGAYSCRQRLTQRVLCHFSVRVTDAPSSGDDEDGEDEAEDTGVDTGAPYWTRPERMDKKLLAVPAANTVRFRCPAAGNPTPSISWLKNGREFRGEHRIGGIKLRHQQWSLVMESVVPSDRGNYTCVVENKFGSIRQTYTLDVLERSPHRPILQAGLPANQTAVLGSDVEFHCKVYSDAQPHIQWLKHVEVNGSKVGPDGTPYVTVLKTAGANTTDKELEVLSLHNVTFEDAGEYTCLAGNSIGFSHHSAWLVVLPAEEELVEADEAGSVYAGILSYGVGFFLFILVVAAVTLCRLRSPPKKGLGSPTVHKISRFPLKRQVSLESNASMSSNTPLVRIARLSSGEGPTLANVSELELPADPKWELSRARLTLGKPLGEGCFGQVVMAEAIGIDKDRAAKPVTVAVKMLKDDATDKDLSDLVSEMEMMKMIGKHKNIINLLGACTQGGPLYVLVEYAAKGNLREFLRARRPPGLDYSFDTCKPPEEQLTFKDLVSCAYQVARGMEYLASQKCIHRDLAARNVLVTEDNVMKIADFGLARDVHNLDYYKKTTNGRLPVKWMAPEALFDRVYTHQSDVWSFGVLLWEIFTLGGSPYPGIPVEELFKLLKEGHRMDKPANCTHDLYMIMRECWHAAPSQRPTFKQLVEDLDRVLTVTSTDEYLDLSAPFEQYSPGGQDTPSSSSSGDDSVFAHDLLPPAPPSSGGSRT
Source text: as §1, §2

[4] = molecular target: FGFR1 (Homo sapiens (Human), UniProt P11362); experiment: FGFR Enzymatic Assay (FRET peptide phosphorylation), FGFR1; details: read-out: FGFR1 IC50; pre-incubated for 4 hours
FGFR1, sequence (P11362 22-822): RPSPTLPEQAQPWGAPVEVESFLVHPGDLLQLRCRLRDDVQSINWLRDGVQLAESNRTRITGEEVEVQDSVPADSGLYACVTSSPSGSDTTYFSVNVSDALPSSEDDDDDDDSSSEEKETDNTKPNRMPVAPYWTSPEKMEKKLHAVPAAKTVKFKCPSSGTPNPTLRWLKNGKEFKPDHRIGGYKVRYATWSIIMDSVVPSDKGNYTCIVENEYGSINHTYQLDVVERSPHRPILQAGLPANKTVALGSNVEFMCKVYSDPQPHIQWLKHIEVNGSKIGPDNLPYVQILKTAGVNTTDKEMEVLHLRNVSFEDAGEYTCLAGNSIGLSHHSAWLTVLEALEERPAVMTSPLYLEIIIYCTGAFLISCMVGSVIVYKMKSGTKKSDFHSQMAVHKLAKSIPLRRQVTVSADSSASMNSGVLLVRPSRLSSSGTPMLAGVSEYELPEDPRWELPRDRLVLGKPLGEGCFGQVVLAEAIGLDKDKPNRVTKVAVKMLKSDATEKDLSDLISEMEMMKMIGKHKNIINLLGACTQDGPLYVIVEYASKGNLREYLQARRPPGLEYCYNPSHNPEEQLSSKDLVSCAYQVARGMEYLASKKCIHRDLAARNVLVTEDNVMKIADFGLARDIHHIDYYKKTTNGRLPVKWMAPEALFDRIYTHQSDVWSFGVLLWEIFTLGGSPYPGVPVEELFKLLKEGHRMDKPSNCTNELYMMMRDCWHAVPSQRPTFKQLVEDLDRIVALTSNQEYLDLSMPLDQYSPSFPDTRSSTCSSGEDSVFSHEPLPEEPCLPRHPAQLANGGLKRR
Source text: as §1, §2

[5] = read-out: FGFR4 IC50, pre-incubated for 4 hours

FGFR2, sequence (P21802 22-821): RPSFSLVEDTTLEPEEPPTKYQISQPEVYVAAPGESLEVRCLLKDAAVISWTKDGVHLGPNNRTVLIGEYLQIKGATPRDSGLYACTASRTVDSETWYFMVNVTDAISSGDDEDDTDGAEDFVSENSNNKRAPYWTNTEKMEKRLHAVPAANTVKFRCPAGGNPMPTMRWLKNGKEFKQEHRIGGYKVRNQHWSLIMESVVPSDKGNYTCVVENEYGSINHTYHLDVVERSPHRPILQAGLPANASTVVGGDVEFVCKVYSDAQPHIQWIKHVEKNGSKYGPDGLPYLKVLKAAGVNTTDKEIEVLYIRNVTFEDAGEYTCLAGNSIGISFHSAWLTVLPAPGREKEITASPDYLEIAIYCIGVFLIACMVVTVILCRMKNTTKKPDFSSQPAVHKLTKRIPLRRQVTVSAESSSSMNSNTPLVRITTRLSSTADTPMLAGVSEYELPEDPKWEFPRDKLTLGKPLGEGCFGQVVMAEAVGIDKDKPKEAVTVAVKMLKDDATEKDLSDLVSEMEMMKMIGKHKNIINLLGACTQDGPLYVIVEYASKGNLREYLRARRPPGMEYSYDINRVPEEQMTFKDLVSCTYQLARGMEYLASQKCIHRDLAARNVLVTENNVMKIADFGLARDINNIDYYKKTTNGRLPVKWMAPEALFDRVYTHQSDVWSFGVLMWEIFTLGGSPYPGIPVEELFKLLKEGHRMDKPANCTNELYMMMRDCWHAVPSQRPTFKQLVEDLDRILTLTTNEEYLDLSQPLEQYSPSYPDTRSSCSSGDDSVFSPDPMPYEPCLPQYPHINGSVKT

Row | SMILES | IC50 [1] [nM] | FGFR1/FGFR4 IC50 ratio ([2]; pre-incubated for 4 hours) | FGFR2/FGFR4 IC50 ratio ([2]; pre-incubated for 4 hours) | FGFR3/FGFR4 IC50 ratio ([2]; pre-incubated for 4 hours) | IC50 [2, 5] [nM] | IC50 [3] [nM] | IC50 [4] [nM] | IC50 [2] [nM]
1 | C=CC(=O)Nc1cn[nH]c1-c1cc2c(cn1)CN(c1c(F)c(OC)cc(OC)c1F)C(=O)C21CC1 [Example 14, N-(5-(2′-(2,6-difluoro-3,5-dimethoxyphenyl)-3′-oxo-2′,3′-dihydro-1′H-spiro[cyclopropane-1,4′-[2,7]naphthyridine]-6′-yl)-1H-pyrazol-4-yl)acrylamide] | > 200 | >100 | >100 | >100 | < 10 | > 200 | > 200 | 
2 | C=CC(=O)Nc1cnn(CCOC)c1-c1cc2c(cn1)CN(c1c(F)c(OC)cc(OC)c1F)C(=O)C21CC1 [Example 15, N-(5-(2′-(2,6-difluoro-3,5-dimethoxyphenyl)-3′-oxo-2′,3′-dihydro-1′H-spiro[cyclopropane-1,4′-[2,7]naphthyridine]-6′-yl)-1-(2-methoxyethyl)-1H-pyrazol-4-yl)acrylamide] | > 200 | >100 | >100 | >100 | < 10 | > 200 | > 200 | 
3 | C=CC(=O)Nc1cnn(CCOCC)c1-c1cc2c(cn1)CN(c1c(F)c(OC)cc(OC)c1F)C(=O)C21CC1 [Example 16, N-(5-(2′-(2,6-difluoro-3,5-dimethoxyphenyl)-3′-oxo-2′,3′-dihydro-1′H-spiro[cyclopropane-1,4′-[2,7]naphthyridine]-6′-yl)-1-(2-ethoxyethyl)-1H-pyrazol-4-yl)acrylamide] | > 200 | >100 | >100 | >100 | < 10 | > 200 | > 200 | 
4 | C=CC(=O)Nc1cnn(CCO)c1-c1cc2c(cn1)CN(c1c(F)c(OC)cc(OC)c1F)C(=O)C21CC1 [Example 17, N-(5-(2′-(2,6-difluoro-3,5-dimethoxyphenyl)-3′-oxo2′,3′-dihydro-1′H-spiro[cyclopropane-1,4′-[2,7]naphthyridine]-6′-yl)-1-(2-hydroxyethyl)-1H-pyrazol-4-yl)acrylamide] | > 200 | >100 | >100 | >100 | < 10 | > 200 | > 200 | 
5 | C=CC(=O)Nc1cnn(C2CCOCC2)c1-c1cc2c(cn1)CN(c1c(F)c(OC)cc(OC)c1F)C(=O)C21CC1 [Example 18, N-(5-(2′-(2,6-difluoro-3,5-dimethoxyphenyl)-3′,-oxo-2′,3′-dihydro-1′H-spiro[cyclopropane-1,4′-[2,7]naphthyridine]-6′-yl)-1-(tetrahydro-2H-pyran-4-yl)-1H-pyrazol-4-yl)acrylamide] | > 200 | >100 | >50 | >100 |  | > 200 | > 200 | 10 to 30
6 | C=CC(=O)Nc1cnn(CCN2CCOCC2)c1-c1cc2c(cn1)CN(c1c(F)c(OC)cc(OC)c1F)C(=O)C21CC1 [Example 19, N-(5-(2′-(2,6-difluoro-3,5-dimethoxyphenyl)-3′-oxo-2′,3′-dihydro-1′H-spiro[cyclopropane-1,4′-[2,7]naphthyridine]-6′-yl)-1-(2-morpholinoethyl)-1H-pyrazol-4-yl)acrylamide] | > 200 | >100 | >100 | >100 |  | > 200 | > 200 | 10 to 30
7 | C=CC(=O)Nc1cnn(Cc2ccncc2)c1-c1cc2c(cn1)CN(c1c(F)c(OC)cc(OC)c1F)C(=O)C21CC1 [Example 21, N-(5-(2′-(2,6-difluoro-3,5-dimethoxyphenyl)-3′-oxo-2′,3′-dihydro-1′H-spiro[cyclopropane-1,4′-[2,7]naphthyridine]-6′-yl)-1-(pyridin-4-ylmethyl)-1H-pyrazol-4-yl)acrylamide] | > 200 | >100 | >50 | >100 | < 10 | > 200 | > 200 | 
8 | C=CC(=O)Nc1cnn(Cc2cccnc2)c1-c1cc2c(cn1)CN(c1c(F)c(OC)cc(OC)c1F)C(=O)C21CC1 [Example 22, N-(5-(2′-(2,6-difluoro-3,5-dimethoxyphenyl)-3′-oxo-2′,3′-dihydro-1′H-spiro[cyclopropane-1,4′-[2,7]naphthyridine]-6′-yl)-1-(pyridin-3-ylmethyl)-1H-pyrazol-4-yl)acrylamide] | > 200 | >100 | >100 | >100 | < 10 | > 200 | > 200 | 
9 | C=CC(=O)Nc1cnn(Cc2ncn(C)n2)c1-c1cc2c(cn1)CN(c1c(F)c(OC)cc(OC)c1F)C(=O)C21CC1 [Example 23, N-(5-(2′-(2,6-difluoro-3,5-dimethoxyphenyl)-3′-oxo-2′,3′-dihydro-1′H-spiro[cyclopropane-1,4′-[2,7]naphthyridine]-6′-yl)-1-((1-methyl-1H-1,2,4-triazol-3-yl)methyl)-1H-pyrazol-4-yl)acrylamide] | > 200 | >100 | >100 | >100 | < 10 | > 200 | > 200 | 
10 | C=CC(=O)Nc1cnn(CC2CCOCC2)c1-c1cc2c(cn1)CN(c1c(F)c(OC)cc(OC)c1F)C(=O)C21CC1 [Example 24, N-(5-(2′-(2,6-difluoro-3,5-dimethoxyphenyl)-3′-oxo,2′,3′-dihydro-1′H-spiro[cyclopropane-1,4′-[2,7]naphthyridine]-6′-yl)-1-((tetrahydro-2H-pyran-4-yl)methyl)-1H-pyrazol-4-yl)acrylamide] | > 200 | >100 | >100 | >100 |  | > 200 | > 200 | 10 to 30
11 | C=CC(=O)Nc1cnn(Cc2ccon2)c1-c1cc2c(cn1)CN(c1c(F)c(OC)cc(OC)c1F)C(=O)C21CC1 [Example 25, N-(5-(2′-(2,6-difluoro-3,5-dimethoxyphenyl)-3′-oxo-2′,3′-dihydro-1′H-spiro[cyclopropane-1,4′-[2,7]naphthyridine]-6′-yl)-1-(isoxazol-3-ylmethyl)-1H-pyrazol-4-yl)acrylamide] | > 200 | >100 | >100 | >100 | < 10 | > 200 | > 200 | 
12 | C=CC(=O)Nc1cnn(Cc2ccnn2C)c1-c1cc2c(cn1)CN(c1c(F)c(OC)cc(OC)c1F)C(=O)C21CC1 [Example 26, N-(5-(2′-(2,6-difluoro-3,5-dimethoxyphenyl)-3′-oxo-2′,3′-dihydro-1′H-spiro[cyclopropane-1,4′-[2,7]naphthyridine]-6′-yl)-1-((1-methyl-1H-pyrazol-5-yl)methyl)-1H-pyrazol-4-yl)acrylamide] | > 200 | >100 | >50 | >100 |  | > 200 | > 200 | 10 to 30
13 | C=CC(=O)Nc1cnn(Cc2cnn(C)c2)c1-c1cc2c(cn1)CN(c1c(F)c(OC)cc(OC)c1F)C(=O)C21CC1 [Example 27, N-(5-(2′-(2,6-difluoro-3,5-dimethoxyphenyl)-3′-oxo-2′,3′-dihydro-1′H-spiro[cyclopropane-1,4′-[2,7]naphthyridine]-6′-yl)-1-((1-methyl-1H-pyrazol-4-yl)methyl)-1H-pyrazol-4-yl)acrylamide] | > 200 | >100 | >100 | >100 | < 10 | > 200 | > 200 | 
14 | C=CC(=O)Nc1cnn(C[C@@H]2CCOC2)c1-c1cc2c(cn1)CN(c1c(F)c(OC)cc(OC)c1F)C(=O)C21CC1 [Example 28, (S)-N-(5-(2′-(2,6-difluoro-3,5-dimethoxyphenyl)-3′-oxo-2′,3′-dihydro-1′H-spiro[cyclopropane-1,4′-[2,7]naphthyridine]-6′-yl)-1-((tetrahydrofuran-3-yl)methyl)-1H-pyrazol-4-yl)acrylamide] | > 200 | >100 | >100 | >100 |  | > 200 | > 200 | 10 to 30
15 | C=CC(=O)Nc1cnn(C[C@H]2CCOC2)c1-c1cc2c(cn1)CN(c1c(F)c(OC)cc(OC)c1F)C(=O)C21CC1 [Example 29, (R)-N-(5-(2′-(2,6-difluoro-3,5-dimethoxyphenyl)-3′-oxo-2′,3′-dihydro-1′H-spiro[cyclopropane-1,4′-[2,7]naphthyridine]-6′-yl)-1-((tetrahydrofuran-3-yl)methyl)-1H-pyrazol-4-yl)acrylamide] | > 200 | >100 | >100 | >100 | < 10 | > 200 | > 200 | 
16 | C=CC(=O)Nc1cnn(C[C@H]2CCCO2)c1-c1cc2c(cn1)CN(c1c(F)c(OC)cc(OC)c1F)C(=O)C21CC1 [Example 30, (R)-N-(5-(2′-(2,6-difluoro-3,5-dimethoxyphenyl)-3′-oxo-2′,3′-dihydro-1′H-spiro[cyclopropane-1,4′-[2,7]naphthyridine]-6′-yl)-1-((tetrahydrofuran-2-yl)methyl)-1H-pyrazol-4-yl)acrylamide] | > 200 | >100 | >100 | >100 | < 10 | > 200 | > 200 | 
